The experiment concerns dogs. The experiment in a line: Study on 60 dogs: owner estimation of playfulness and sociability before and after DHEAS treatment. It is filed as in vivo, dog. The settings on record: for playfulness and sociability: dogs. How it is done:
Table 1. […] Playfulness was defined as a dog initiating solitary play. Sociability was defined as a dog initiating play with another pet or with its owner. […] Of twenty-six dogs treated the highest doses (25 or 50 mg/kg) eighteen owners reported the changes in their dogs to be dramatic.
Physiological levels of circulating DHEAS in canines are 10 ng/ml (±2 ng/ml) (Frank et al, 2003; Odell & Parker, 1985; Tremblay & Belanger, 1985; Mialot et al, 1988; Mongillo et al, 2014; Rondelli et al, 2015). Our invention employs doses of DHEAS that produce supra-physiologic concentrations of circulating DHEAS at least nine times higher than this, i.e., at least 90 ng/ml, i.e. equivalent to the lower range of primate-specific high levels of circulating DHEAS (FIG. 1). This equates to a minimum treatment dose of 0.009 mg/kg. Our studies reported here were performed with DHEAS administered at ranges from 0.5-50 mg/kg. For all non-primate animals, this invention employs supra-physiologic doses of DHEAS that produce concentrations of circulating DHEAS that are at least ten-fold higher than those found naturally
Thus, in 56 of 60 treated dogs, owners reported observing a very clear improvement in their dog's playfulness and sociability, an observation that in most cases was also remarked upon by visitors to the owner's home. The uniformity of this finding is surprising, because the natural levels of canine DHEAS are quite low, and so this species has never been exposed to such high levels as we report here. Clearly, dogs experience an unmistakable positive response to exogenous DHEAS.
We administered our DHEAS orally, as a liquid, or in capsules. A preferred embodiment of this invention are dosage formulations that mask the bitter flavor of DHEAS from dogs or other pet animals receiving it orally. As an example, Onda et al. (U.S. Pat. No. 4,385,078A) teach methods for providing enteric coatings for solid dosage forms. Tai (U.S. Pat. No. 5,013,557A) teaches taste masking compositions comprising spray dried microcapsules containing sucralfate, and Alkire (U.S. Pat. No. 5,607,697A) and Cherukuri et al (U.S. Pat. No. 5,013,716A) teach the manufacture of taste masking microparticles for oral dosage forms. Patell (U.S. Pat. No. 4,916,161A) teaches the use of taste-masking pharmaceutical agents via wet granulation. In short, many methods are available to produce a formulation that will effectively prevent dogs or other pet animals from experiencing the bitter taste of DHEAS. Very little work has been done using DHEAS as the pharmaceutical ingredient, with most studies utilizing DHEA. For example, US20140235598A1 teaches the manufacture of tablets containing DHEA, but a similar formulation could be rendered with DHEAS.

Where “and” joins values, the source holds several entries; their conditions need not be identical. Equal values may be shown once.

As for Dehydroepiandrosterone sulfate [DHEAS], for the setting “60 treated dogs, DHEAS oral (liquid or capsules), 0.5-50 mg/kg, owner estimation”, the “dogs whose owners reported a clear increase in playfulness and/or sociability during the treatment period” value was “fifty-six of sixty and 56 of 60”. In addition, the playfulness and sociability result reads like this: (doses of 5 mg/kg and above) “profound increase”; (lower dose of 1 mg/kg) “an effect could be observed”. Besides, the “owners who reported the changes in their dogs to be dramatic” value (of twenty-six dogs treated with the highest doses (25 or 50 mg/kg)) was “eighteen”.
